Results published in US20210121577A1, “FILM COATED TABLET FOR THE TREATMENT OF ACUTE PAIN” (SANOFI-AVENTIS DEUTSCHLAND GMBH, priority 2014, published 2021).

Test system: post-operative dental pain
Test: Clinical trial in patients with post-operative dental pain (model for acute pain), randomized double-blind parallel-group
Type: in vivo
Settings: single dose, ibuprofen 400 mg, caffeine 100 mg or fixed combination
Method: Male and female patients between the ages of 18 and 55 years, scheduled for the extraction of 3 to 4 unsound wisdom teeth, with at least 2 extracted molars were recruited; the baseline of dental pain intensity must be at least moderate on a verbal evaluation scale and at least 5 on a numerical evaluation scale ranging from 0 to 10.
The pain intensity (PI) was evaluated in a diary before administration and at 0.25, 0.5, 0.75, 1, 1.5, 2, 3, 4, 5, 6, 7 and 8 hours after the first dose of the study medication using an 11-point numerical rating scale (NPRS) from 0=“no pain” to 10=“worst possible pain”.
The pain relief (PAR) beginning from pain onset was evaluated in a patient diary using a 5-point rating scale (VRS) (0=no pain relief; 1=a little pain relief; 2=some pain relief; 3=much pain relief; 4=complete pain relief) at the same time points as for the PI evaluation.
As soon as a patient needed an emergency medication or a second dose of the medication within less than 8 hours, PI and PAR were evaluated before the emergency medication or second dose was administered.
The time-weighted sum of pain relief (PAR) and the pain intensity difference (PID) relative to baseline between 0 and 8 hours is determined as follows:
Higher values of the SPRID0-8 h likewise indicate greater benefit for the patient.

For `CC(C)Cc1ccc(C(C)C(=O)O)cc1` (racemic) [Ibuprofen, (+/−) 2-(p-isobutylphenyl)-propionic acid], the “Median duration of action” value (Kaplan-Meyer analysis) was 7.1 h, the “Adjusted Mean SPRID0-8 h value (time-weighted sum of pain relief and pain intensity difference from 0 to 8 hours)” value (study stage 1, primary endpoint, higher = greater benefit) was 40.165 and the “Adjusted Mean SPRID0-2 h value (time-weighted sum of PAR and PID from 0 to 2 hours)” value (study stage 1, secondary endpoint) was 6.990.
